Test results as given in patent publication US20240336566A1, “CRYSTALLINE FORMS OF A COMPOUND FOR THE TARGETED DEGRADATION OF THE ANDROGEN RECEPTOR” (Arvinas Operations, Inc., priority 2023, published 2024).
Like-named read-outs stand apart in the source and are kept apart here.

Assay: Solvent solubility screen of Compound A (aliquot addition, HPLC of saturated solutions)
Type: physicochemical
Set-up: key to XRPD: A: Amorphous; P1: Pattern 1; P2: Pattern 2; *Poorly crystalline; + p1: some pattern 1 peaks
Conditions: for solubility: thermodynamic from solid; for XRPD: solid from solubility screen
Protocol: A known volume aliquot (typically 5 volumes) of solvent was added to approximately 5 mg of Compound A. See Table 14 for the selected solvents for the solvent solubility screen.
Between each addition, the mixture was checked for dissolution and where no dissolution was apparent, the mixture was heated to ca. 40° C. and checked again. This procedure was continued until dissolution was observed or until 100 volumes of solvent had been added.
Where dissolution was not observed, solids were isolated centrifugally and analyzed by XRPD. The saturated solutions were analyzed by HPLC to obtain the solubility.

`COc1cc(O[C@H]2C(C)(C)[C@H](NC(=O)c3ccc(N4CCC(CN5CCN(c6ccc(C(=O)N[C@H]7CCC(=O)NC7=O)c(F)c6)CC5)CC4)cc3)C2(C)C)ccc1C#N` [Compound A, 4-(4-((1-(4-(((1R,3R)-3-(4-cyano-3-methoxyphenoxy)-2,2,4,4-tetramethylcyclobutyl)carbamoyl)phenyl)piperidin-4-yl)methyl)piperazin-1-yl)-N—((S)-2,6-dioxopiperidin-3-yl)-2-fluorobenzamide] showed a solubility (Acetonitrile, 40 °C, organic solvent or mixture, Acetonitrile, read-out: Approximate Solubility) of 0.995 mg/mL, a solubility (Anisole, organic solvent or mixture, Anisole, read-out: Approximate Solubility) of 25 mg/mL and a solubility (Butyl acetate, 40 °C, organic solvent or mixture, Butyl acetate, read-out: Approximate Solubility) of 0.209 mg/mL. The solubility (DCM, organic solvent or mixture, DCM, read-out: Approximate solubility) was ~50 mg/mL, the solubility (DCM, organic solvent or mixture, DCM, read-out: solubility) was 50 to 100 mg/mL and the solubility (DCM:methanol (50:50% v/v), organic solvent or mixture, DCM:methanol (50:50% v/v), read-out: solubility) was 50 to 100 mg/mL. The solubility (DCM:methanol (75:25% v/v), organic solvent or mixture, DCM:methanol (75:25% v/v), read-out: solubility) was > 100 mg/mL, the solubility (DMA, organic solvent or mixture, DMA, read-out: solubility) was > 100 mg/mL and the solubility (DMF, organic solvent or mixture, DMF, read-out: solubility) was > 100 mg/mL. The solubility (DMSO, organic solvent or mixture, DMSO, read-out: solubility) was > 100 mg/mL, the solubility (Dichloromethane, organic solvent or mixture, Dichloromethane, read-out: Approximate Solubility) was 50 mg/mL and the solubility (N,N′-dimethylacetamide, organic solvent or mixture, N,N′-Dimethylacetamide, read-out: Approximate Solubility) was 100 mg/mL. It also gave a solubility (N,N′-dimethylformamide, organic solvent or mixture, N,N′-Dimethylformamide, read-out: Approximate Solubility) of 100 mg/mL, a solubility (N-methylpyrrolidone, organic solvent or mixture, N-Methylpyrrolidone, read-out: Approximate Solubility) of 50 mg/mL and a solubility (NMP, organic solvent or mixture, NMP, read-out: solubility) of 50 to 100 mg/mL. The solubility (THF, organic solvent or mixture, THF, read-out: Approximate solubility) was ~50 mg/mL, the solubility (THF, organic solvent or mixture, THF, read-out: solubility) was 50 to 100 mg/mL and the solubility (THF:water (98:2% v/v), organic solvent or mixture, THF:water (98:2% v/v), read-out: solubility) was 50 to 100 mg/mL. The solubility (acetone:water (90:10% v/v), 40 °C, organic solvent or mixture, Acetone:Water (90:10% v/v), read-out: Approximate Solubility) was 5.68 mg/mL, the solubility (acetonitrile:water (75:25% v/v), 40 °C, organic solvent or mixture, Acetonitrile:Water (75:25% v/v), read-out: Approximate Solubility) was 1.05 mg/mL and the solubility (anisole, organic solvent or mixture, anisole, read-out: solubility) was 25 to 50 mg/mL. For the same molecule, the solubility (dichloromethane:methanol (50:50% v/v), organic solvent or mixture, Dichloromethane:Methanol (50:50% v/v), read-out: Approximate Solubility) was 50 mg/mL, the solubility (dichloromethane:methanol (50:50% v/v), organic solvent or mixture, Dichloromethane:Methanol (50:50% v/v), read-out: Approximate solubility) was ~50 mg/mL and the solubility (dichloromethane:methanol (75:25% v/v), organic solvent or mixture, Dichloromethane:Methanol (75:25% v/v), read-out: Approximate Solubility) was 100 mg/mL. For the same molecule, the solubility (diethyl ether, 40 °C, organic solvent or mixture, Diethyl ether, read-out: Approximate Solubility) was 0.002 mg/mL, the solubility (dimethylsulfoxide, organic solvent or mixture, Dimethylsulfoxide, read-out: Approximate Solubility) was 100 mg/mL and the solubility (ethanol, 40 °C, organic solvent or mixture, Ethanol, read-out: Approximate Solubility) was 0.276 mg/mL. It also gave a solubility (ethanol:water (50:50% v/v), 40 °C, aqueous with cosolvent or surfactant or cyclodextrin, Ethanol:Water (50:50% v/v), read-out: Approximate Solubility) of 0.0192 mg/mL, a solubility (ethyl acetate, 40 °C, organic solvent or mixture, Ethyl acetate, read-out: Approximate Solubility) of 0.444 mg/mL and a solubility (ethyl formate, 40 °C, organic solvent or mixture, Ethyl formate, read-out: Approximate Solubility) of 1.01 mg/mL. For the same molecule, the solubility (heptane, 40 °C, organic solvent or mixture, Heptane, read-out: Approximate Solubility) was 0.0017 mg/mL, the solubility (isopropyl acetate, organic solvent or mixture, Isopropyl acetate, read-out: Approximate Solubility) was 0.174 mg/mL and the solubility (methanol, organic solvent or mixture, Methanol, read-out: Approximate Solubility) was 0.437 mg/mL. For the same molecule, the solubility (methylisobutyl ketone, organic solvent or mixture, Methylisobutyl ketone, read-out: Approximate Solubility) was 0.53 mg/mL, the solubility (organic solvent or mixture, remaining 25 solvent systems tested, read-out: solubility) was < 5 mg/mL and the XRPD (1,4-Dioxane) was “A”. For the same molecule, the XRPD (1-Butanol) was “P1”, the XRPD (1-Propanol) was “P1” and the XRPD (2-Butanone (MEK)) was “P1”. The XRPD (2-Ethoxyethanol) was “P1”, the XRPD (3-Methyl-1-butanol) was “A” and the XRPD (Acetone) was “P1”. For the same molecule, the XRPD (Acetonitrile:Water (75:25% v/v)) was “A”, the XRPD (Butyl acetate) was “P1” and the XRPD (Dichloromethane) was “A”. The XRPD (Dichloromethane:Methanol (50:50% v/v)) was “A”, the XRPD (Dichloromethane:Methanol (75:25% v/v)) was “A” and the XRPD (Ethanol) was “P1”. The XRPD (Ethyl acetate) was “P1”, the XRPD (Heptane) was “A” and the XRPD (Toluene) was “A”. The XRPD (Water) was “A”, the XRPD (tert-Butylmethyl ether) was “A” and the solubility (tert-Butylmethyl ether, organic solvent or mixture, tert-Butylmethyl ether, read-out: Approximate Solubility) was 0.108 mg/mL. It also gave a solubility (tetrahydrofuran, organic solvent or mixture, Tetrahydrofuran, read-out: Approximate Solubility) of 50 mg/mL, a solubility (tetrahydrofuran:water (98:2% v/v), organic solvent or mixture, Tetrahydrofuran:Water (98:2% v/v), read-out: Approximate Solubility) of 50 mg/mL and a solubility (tetrahydrofuran:water (98:2% v/v), organic solvent or mixture, Tetrahydrofuran:Water (98:2% v/v), read-out: Approximate solubility) of ~50 mg/mL. For the same molecule, the solubility (toluene, organic solvent or mixture, Toluene, read-out: Approximate Solubility) was 0.0298 mg/mL and the solubility (water, Water, read-out: Approximate Solubility) was 0.0005 mg/mL.
